From patent publication US20260184748A1, “COMPOSITIONS COMPRISING OCTADECANEUROPEPTIDES (ODN) AND SYNTHETIC DERIVATIVES THEREOF AND METHODS OF USE FOR MODULATION OF FOOD INTAKE, OBESITY, BODY WEIGHT, NAUSEA, AND EMESIS” (The Trustees of the University of Pennsylvania, priority 2022, published 2026)
Where “and” joins values, the source holds several entries; their conditions need not be identical. Equal values may be shown once. Read-outs that look alike come from different tables or passages of the source. Where a SMILES comes first, the peptide text is derived from it. Where no end group is shown, it is not given here.

Experiments:
[1] = biological target: PTAFR (Homo sapiens, UniProt P25105); test: Arrestin agonist mode; format: cell-based; settings: read-out: RC50 (the source's name)
PTAFR, sequence (P25105 whole entry): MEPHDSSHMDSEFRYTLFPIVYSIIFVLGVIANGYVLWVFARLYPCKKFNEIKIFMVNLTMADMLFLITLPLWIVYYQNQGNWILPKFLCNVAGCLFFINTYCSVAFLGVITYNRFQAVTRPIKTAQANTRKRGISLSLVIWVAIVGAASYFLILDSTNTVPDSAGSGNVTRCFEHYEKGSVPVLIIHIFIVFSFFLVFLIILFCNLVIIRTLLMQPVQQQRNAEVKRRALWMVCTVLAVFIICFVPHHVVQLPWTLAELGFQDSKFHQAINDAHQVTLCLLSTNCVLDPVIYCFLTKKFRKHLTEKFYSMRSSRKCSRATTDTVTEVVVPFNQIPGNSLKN

[2] = biological target: GPR119 (Homo sapiens, UniProt Q8TDV5); test: Arrestin agonist mode; format: cell-based; settings: read-out: RC50 (the source's name)
GPR119, sequence (Q8TDV5 whole entry): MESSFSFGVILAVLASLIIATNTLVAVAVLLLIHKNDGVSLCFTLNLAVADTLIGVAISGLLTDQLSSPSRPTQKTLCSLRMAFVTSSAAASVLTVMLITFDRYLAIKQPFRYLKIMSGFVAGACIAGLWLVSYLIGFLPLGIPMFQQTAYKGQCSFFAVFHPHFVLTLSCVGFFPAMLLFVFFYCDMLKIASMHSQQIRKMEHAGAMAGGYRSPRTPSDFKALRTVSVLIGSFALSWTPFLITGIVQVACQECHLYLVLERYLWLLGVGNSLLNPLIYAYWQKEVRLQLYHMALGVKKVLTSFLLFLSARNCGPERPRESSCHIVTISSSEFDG

[3] = shrews; for emetic episodes: intraperitoneal
[4] = Kaolin intake (pica) in rats; format: in vivo, rat
[5] = biological target: TBXA2R (Homo sapiens, UniProt P21731); test: Arrestin agonist mode; format: cell-based; settings: read-out: RC50 (the source's name)
TBXA2R, sequence (P21731 whole entry): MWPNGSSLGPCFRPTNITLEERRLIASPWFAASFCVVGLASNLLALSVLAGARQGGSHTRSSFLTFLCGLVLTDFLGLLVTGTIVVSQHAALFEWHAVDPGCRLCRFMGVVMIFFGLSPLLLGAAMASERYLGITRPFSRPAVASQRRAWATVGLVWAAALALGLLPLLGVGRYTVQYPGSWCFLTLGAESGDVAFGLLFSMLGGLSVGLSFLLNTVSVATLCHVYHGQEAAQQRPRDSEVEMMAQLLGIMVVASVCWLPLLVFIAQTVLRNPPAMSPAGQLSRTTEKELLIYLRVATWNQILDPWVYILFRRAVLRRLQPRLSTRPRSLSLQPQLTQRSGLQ

[6] = biological target: PTGIR (Homo sapiens, UniProt P43119); test: Arrestin agonist mode; format: cell-based; settings: read-out: RC50 (the source's name)
[7] = rat, in vivo
[8] = biological target: P2RY6 (Homo sapiens, UniProt Q15077); test: Arrestin agonist mode; format: cell-based; settings: read-out: RC50 (the source's name)
P2RY6, sequence (Q15077 whole entry): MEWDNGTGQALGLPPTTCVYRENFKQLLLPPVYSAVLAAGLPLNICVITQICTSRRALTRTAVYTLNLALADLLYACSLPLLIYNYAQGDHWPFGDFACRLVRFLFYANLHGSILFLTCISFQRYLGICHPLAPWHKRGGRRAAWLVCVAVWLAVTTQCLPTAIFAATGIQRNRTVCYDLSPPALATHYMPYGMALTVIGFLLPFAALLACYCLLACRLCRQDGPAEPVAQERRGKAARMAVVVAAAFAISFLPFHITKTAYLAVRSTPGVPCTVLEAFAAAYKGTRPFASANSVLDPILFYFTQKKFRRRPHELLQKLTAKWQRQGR

[9] = biological target: OXER1 (Homo sapiens, UniProt Q8TDS5); test: Arrestin agonist mode; format: cell-based; settings: read-out: RC50 (the source's name)
OXER1, sequence (Q8TDS5 whole entry): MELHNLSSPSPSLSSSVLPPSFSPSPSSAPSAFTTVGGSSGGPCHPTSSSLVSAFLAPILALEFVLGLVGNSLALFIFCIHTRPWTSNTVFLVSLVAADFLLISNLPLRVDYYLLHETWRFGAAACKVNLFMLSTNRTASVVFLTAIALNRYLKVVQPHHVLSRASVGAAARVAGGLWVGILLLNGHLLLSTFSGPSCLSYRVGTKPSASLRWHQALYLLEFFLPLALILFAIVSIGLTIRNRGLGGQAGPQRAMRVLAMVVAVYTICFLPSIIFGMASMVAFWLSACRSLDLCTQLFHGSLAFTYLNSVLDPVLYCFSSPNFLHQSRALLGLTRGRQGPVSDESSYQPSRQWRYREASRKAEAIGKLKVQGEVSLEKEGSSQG

[10] = biological target: GPR109B (Homo sapiens, UniProt P49019); test: Arrestin agonist mode; format: cell-based; settings: read-out: RC50 (the source's name)
GPR109B, sequence (P49019 whole entry): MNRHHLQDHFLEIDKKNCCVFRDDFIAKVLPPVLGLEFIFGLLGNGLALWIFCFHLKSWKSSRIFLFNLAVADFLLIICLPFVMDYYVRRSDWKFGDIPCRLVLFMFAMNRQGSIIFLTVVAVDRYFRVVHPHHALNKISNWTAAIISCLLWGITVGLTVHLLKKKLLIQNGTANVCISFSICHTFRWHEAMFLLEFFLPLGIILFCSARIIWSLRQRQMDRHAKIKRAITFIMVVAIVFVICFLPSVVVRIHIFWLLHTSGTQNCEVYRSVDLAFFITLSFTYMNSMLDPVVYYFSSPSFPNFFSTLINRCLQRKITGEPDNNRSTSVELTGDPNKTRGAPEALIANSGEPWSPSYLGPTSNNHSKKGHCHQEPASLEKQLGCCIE

[11] = biological target: KISS1R (Homo sapiens, UniProt Q969F8); test: Arrestin agonist mode; format: cell-based; settings: read-out: RC50 (the source's name)
KISS1R, sequence (Q969F8 whole entry): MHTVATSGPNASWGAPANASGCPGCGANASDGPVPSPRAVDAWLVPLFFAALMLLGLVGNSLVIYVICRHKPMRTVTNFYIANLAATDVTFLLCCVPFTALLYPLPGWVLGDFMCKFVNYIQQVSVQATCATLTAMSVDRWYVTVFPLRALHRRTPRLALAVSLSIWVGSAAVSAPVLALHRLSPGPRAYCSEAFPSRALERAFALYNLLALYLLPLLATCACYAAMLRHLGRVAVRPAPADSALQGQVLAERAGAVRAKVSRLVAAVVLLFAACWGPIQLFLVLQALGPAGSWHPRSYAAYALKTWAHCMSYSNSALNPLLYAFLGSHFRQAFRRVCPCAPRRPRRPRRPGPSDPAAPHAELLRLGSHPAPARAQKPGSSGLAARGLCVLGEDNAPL

[12] = tested on: GPCR panel; test: gpcrMAX agonist mode (beta-arrestin recruitment), GPCR Biosensor Assays; format: cell-based; parameters: Max Response: unit not given here
[13] = biological target: P2RY2 (Homo sapiens, UniProt P41231); test: Arrestin agonist mode; format: cell-based; settings: read-out: RC50 (the source's name)
P2RY2, sequence (P41231 whole entry): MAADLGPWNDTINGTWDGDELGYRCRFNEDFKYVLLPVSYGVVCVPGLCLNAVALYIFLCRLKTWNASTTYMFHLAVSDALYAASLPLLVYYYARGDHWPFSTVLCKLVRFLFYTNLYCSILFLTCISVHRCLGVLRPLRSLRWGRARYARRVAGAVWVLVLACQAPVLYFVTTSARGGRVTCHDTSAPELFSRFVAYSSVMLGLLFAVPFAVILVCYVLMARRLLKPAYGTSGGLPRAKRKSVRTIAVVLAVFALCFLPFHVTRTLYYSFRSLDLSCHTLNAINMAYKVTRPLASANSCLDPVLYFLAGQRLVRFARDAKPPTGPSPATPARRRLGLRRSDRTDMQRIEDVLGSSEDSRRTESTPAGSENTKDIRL

[14] = biological target: P2RY4 (Homo sapiens, UniProt P51582); test: Arrestin agonist mode; format: cell-based; settings: read-out: RC50 (the source's name)
P2RY4, sequence (P51582 whole entry): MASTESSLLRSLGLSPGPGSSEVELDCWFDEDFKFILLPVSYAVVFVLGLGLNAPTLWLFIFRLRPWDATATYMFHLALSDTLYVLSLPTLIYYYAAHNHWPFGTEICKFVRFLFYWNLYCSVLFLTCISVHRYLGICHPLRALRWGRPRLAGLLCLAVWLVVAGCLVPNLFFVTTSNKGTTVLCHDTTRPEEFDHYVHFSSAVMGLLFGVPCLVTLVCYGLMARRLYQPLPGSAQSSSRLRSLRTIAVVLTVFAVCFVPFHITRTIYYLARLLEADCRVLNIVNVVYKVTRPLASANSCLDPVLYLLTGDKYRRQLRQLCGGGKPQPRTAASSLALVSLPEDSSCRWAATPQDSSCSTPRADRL

[15] = 24 h body weight change in rats; format: in vivo, rat; settings: 4th ventricle injection
[16] = tested on: DBI protein expression; test: Hindbrain DBI immunohistochemistry and quantification; format: in vivo, rat; settings: 4th ventricle Ex-4 0.3 μg/2 μL in 24 h fasted HFD-maintained rats
Method: Rats maintained on chow or HFD were either ad libitum fed or fasted for 24 h. […] Rats were deeply anesthetized with KAX and transcardially perfused with 0.1 M phosphate-buffered saline (PBS; pH 7.4) followed by 4% paraformaldehyde in 0.1 M PBS on ice. Brains were removed from the crania and post-fixed in 4% paraformaldehyde for 24 h, then stored in 20% sucrose in 0.1 M PBS at 4° C. until sunk. Coronal dorsal vagal complex (DVC) sections (30 μm) were sliced and collected directly onto slides (12-550-15; Superfrost Plus, Fisher Scientific) using a cryostat and stored at −80° C. until the start of immunohistochemistry (IHC). Briefly, tissue was washed with 0.1 M PBS 3 times for 8 minutes and then incubated in blocking solution [5% normal donkey serum (Jackson Immunoresearch) in PBST; PBS with 0.3% triton X] followed by overnight incubation in rabbit anti-DBI primary antibody (1:500; ab231910, Abcam) and chicken anti-vimentin primary antibody (1:2000; ab24525, Abcam) at 4° C. […] Slides were visualized using fluorescence microscopy (BZ-X810, Keyence). Images analysis to quantify the fluorescent intensity of DBI protein staining in the nucleus solitary tractus (NTS) and area postrema (AP) as well as the % colocalization of DBI and vimentin staining in the AP, subpostrema, and 4th ventricle boarder was done using the HALO@FISH-IF and Area Quantification FL modules.

[17] = biological target: NPSR1B (Homo sapiens, UniProt Q6W5P4); test: Arrestin agonist mode; format: cell-based; settings: read-out: RC50 (the source's name)
NPSR1B, sequence (Q6W5P4 1-377 isoform Q6W5P4-4): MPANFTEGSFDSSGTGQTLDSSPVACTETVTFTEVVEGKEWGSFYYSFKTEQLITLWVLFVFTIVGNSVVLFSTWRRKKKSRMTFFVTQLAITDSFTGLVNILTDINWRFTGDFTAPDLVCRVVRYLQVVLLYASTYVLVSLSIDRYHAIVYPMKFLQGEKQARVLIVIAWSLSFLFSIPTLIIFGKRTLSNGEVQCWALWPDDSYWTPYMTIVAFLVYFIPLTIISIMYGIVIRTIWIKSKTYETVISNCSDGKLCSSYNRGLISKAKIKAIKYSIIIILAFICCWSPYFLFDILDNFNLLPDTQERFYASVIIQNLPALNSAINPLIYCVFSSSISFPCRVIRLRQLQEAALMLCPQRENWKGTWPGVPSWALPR

[18] = biological target: P2RY12 (Homo sapiens, UniProt Q9H244); test: Arrestin agonist mode; format: cell-based; settings: read-out: RC50 (the source's name)
P2RY12, sequence (Q9H244 whole entry, one chain of several): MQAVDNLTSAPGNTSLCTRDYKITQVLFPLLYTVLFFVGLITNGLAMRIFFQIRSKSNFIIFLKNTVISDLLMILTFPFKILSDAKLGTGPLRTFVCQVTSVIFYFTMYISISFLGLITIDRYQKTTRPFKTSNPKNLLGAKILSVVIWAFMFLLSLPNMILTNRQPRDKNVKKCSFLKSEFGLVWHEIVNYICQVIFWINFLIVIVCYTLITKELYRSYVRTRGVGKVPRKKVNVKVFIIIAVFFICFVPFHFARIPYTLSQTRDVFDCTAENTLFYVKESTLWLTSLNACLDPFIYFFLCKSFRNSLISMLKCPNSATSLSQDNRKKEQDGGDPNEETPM

[19] = biological target: MLNR (Homo sapiens, UniProt O43193); test: Arrestin agonist mode; format: cell-based; settings: read-out: RC50 (the source's name)
MLNR, sequence (O43193 whole entry): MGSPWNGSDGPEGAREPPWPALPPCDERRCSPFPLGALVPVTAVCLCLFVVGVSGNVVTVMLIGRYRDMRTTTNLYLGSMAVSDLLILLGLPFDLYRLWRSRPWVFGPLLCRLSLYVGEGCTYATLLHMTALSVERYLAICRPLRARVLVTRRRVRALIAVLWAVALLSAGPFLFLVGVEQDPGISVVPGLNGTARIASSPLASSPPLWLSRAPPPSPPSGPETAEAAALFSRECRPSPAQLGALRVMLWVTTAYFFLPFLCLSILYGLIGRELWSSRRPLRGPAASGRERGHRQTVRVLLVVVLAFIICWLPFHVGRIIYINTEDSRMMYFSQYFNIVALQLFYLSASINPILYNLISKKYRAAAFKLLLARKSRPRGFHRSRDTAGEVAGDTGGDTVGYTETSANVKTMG

[20] = biological target: CCR2 (Homo sapiens, UniProt P41597); test: Arrestin agonist mode; format: cell-based; settings: read-out: RC50 (the source's name)
CCR2, sequence (P41597 whole entry): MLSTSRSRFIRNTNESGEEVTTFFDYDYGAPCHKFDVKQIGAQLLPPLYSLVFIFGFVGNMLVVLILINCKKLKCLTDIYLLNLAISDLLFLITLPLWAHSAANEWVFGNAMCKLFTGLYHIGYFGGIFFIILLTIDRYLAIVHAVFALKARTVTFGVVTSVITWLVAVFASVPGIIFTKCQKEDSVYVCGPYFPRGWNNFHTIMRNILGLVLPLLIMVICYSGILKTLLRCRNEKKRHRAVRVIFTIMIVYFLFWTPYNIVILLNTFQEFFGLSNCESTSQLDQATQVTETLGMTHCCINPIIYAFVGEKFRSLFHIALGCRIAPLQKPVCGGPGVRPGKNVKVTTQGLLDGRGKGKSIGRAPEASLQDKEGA

[21] = rat, in vivo, ip

Compound: CCCCCCCCCCCCCCCCOC[C@H](COP(=O)([O-])OCC[N+](C)(C)C)OC(C)=O [PAF]
- EC50 [1]: 0.00382 µM

Compound: CCCCCCCC/C=C\CCCCCCCC(=O)NCCO [Oleoyl Ethanolamide]
- EC50 [2]: 1.84 µM

Compound: QATVGDVNTDRPGLLDLK-NH2 [ODN]
- emesis ([3]; intraperitoneal 500 μg/kg or 5000 μg/kg): without including emesis
- emetic episodes ([3]; high ODN dose): no emetic episodes were observed
- emetic episodes ([3]; low ODN dose): one of 9 shrews had an emetic episode

Compound: DVNTDRPGLLDLK-NH2 [TDN]
- kaolin intake ([4]; 4th ventricle injection, HFD-maintained rats): mildly increase kaolin intake in HFD-maintained rats
- kaolin intake ([4]; 4th ventricle injection, chow-maintained rats): did not alter kaolin intake in chow rats
- kaolin intake ([4]; lateral ventricle injection, chow and HFD rats): did not affect kaolin intake

Compound: O=C(O)CCC/C=C\C[C@@H]1[C@@H](/C=C/[C@@H](O)COc2ccc(I)cc2)[C@H]2CC[C@@H]1O2 [I-BOP]
- EC50 [5]: 0.0213 µM

Compound: CC#CCC(C)[C@H](O)/C=C/[C@@H]1[C@H]2c3cccc(CCCC(=O)O)c3O[C@H]2C[C@H]1O (mixture of isomers) [Beraprost]
- EC50 [6]: 0.219 µM

Compound: CC(C)C[C@H](NC(=O)CNC(=O)[C@@H]1CCCN1C(=O)[C@@H](N)CCCNC(=N)N)C(=O)N[C@H](CC(C)C)C(=O)N[C@@H](CC(=O)O)C(=O)N[C@@H](CC(C)C)C(=O)N[C@@H](CCCCN)C(N)=O [AntOP, Arg-Pro-Gly-Leu-(D-Leu)-Asp-Leu-Lys] (HELM PEPTIDE1{R.P.G.L.[dL].D.L.K.[am]}$$$$V2.0)
- effect of pretreatment on Ex-4-induced kaolin intake [7]: did not significantly elevate kaolin intake relative to controls

Compound: O=c1ccn([C@@H]2O[C@H](COP(=O)(O)OP(=O)(O)O)[C@@H](O)[C@H]2O)c(=O)[nH]1 [UDP]
- EC50 [8]: 0.0133 µM

Compound: CCCCC/C=C\C/C=C\C/C=C\C=C\C(=O)CCCC(=O)O [5-OxoETE]
- EC50 [9]: 1.14 µM

Compound: CCCCCC(O)CC(=O)O (stereo not shown) [3-Hydroxyoctanoic Acid]
- EC50 [10]: 373 µM

Compound: CC(C)C[C@H](NC(=O)CNC(=O)[C@H](Cc1ccccc1)NC(=O)[C@H](CO)NC(=O)[C@H](CC(N)=O)NC(=O)[C@H](Cc1c[nH]c2ccccc12)NC(=O)[C@H](CC(N)=O)NC(=O)[C@@H](N)Cc1ccc(O)cc1)C(=O)N[C@@H](CCCNC(=N)N)C(=O)N[C@@H](Cc1ccccc1)C(N)=O [Kisspeptin-10]
- EC50 [11]: 0.0176 µM

Compound: CCCCCCC(C)(C)c1ccc([C@@H]2C[C@H](O)CC[C@H]2CCCO)c(O)c1 [CP55940]
- Max Response [12]: 104.27 and 99.599

Compound: CC[C@H](C)[C@H](NC(=O)CNC(=O)[C@H](CCCNC(=N)N)NC(=O)[C@H](CO)NC(=O)[C@H](C)NC(=O)[C@H](Cc1ccc(O)cc1)NC(=O)[C@H](Cc1c[nH]c2ccccc12)NC(=O)[C@H](C)NC(=O)[C@@H]1CCCN1C(=O)[C@H](CC(N)=O)NC(=O)[C@@H](NC(=O)[C@H](CC(=O)O)NC(=O)[C@@H]1CCCN1C(=O)[C@@H](NC(=O)[C@H](CCCNC(=N)N)NC(=O)[C@@H](NC(=O)[C@H](CCC(=O)O)NC(=O)[C@H](CCSC)NC(=O)[C@H](CO)NC(=O)[C@H](Cc1c[nH]cn1)NC(=O)[C@H](CCCNC(=N)N)NC(=O)[C@H](Cc1c[nH]cn1)NC(=O)[C@@H](NC(=O)[C@H](CCCNC(=N)N)NC(=O)[C@@H](N)CO)[C@@H](C)O)[C@@H](C)CC)[C@@H](C)O)[C@@H](C)CC)C(=O)N[C@@H](CCCNC(=N)N)C(=O)N1CCC[C@H]1C(=O)N[C@H](C(=O)NCC(=O)N[C@@H](CCCNC(=N)N)C(=O)N[C@@H](Cc1ccccc1)C(N)=O)C(C)C [PrRP-31]
- EC80 [12]: 0.01072 µM
- Max Response [12]: 101.19

Compound: O=c1ccn([C@@H]2O[C@H](COP(=O)(O)OP(=O)(O)OP(=O)(O)O)[C@@H](O)[C@H]2O)c(=O)[nH]1 [UTP]
- EC50 [13]: 0.431 µM
- EC50 [14]: 0.126 µM

Compound: CC(C)C[C@H](NC(=O)[C@H](CCCCN)NC(=O)CNC(=O)[C@H](CC(C)C)NC(=O)[C@@H](NC(=O)[C@@H]1CSSC[C@H](N)C(=O)N[C@@H](CO)C(=O)N[C@@H](CC(N)=O)C(=O)N[C@@H](CC(C)C)C(=O)N[C@@H](CO)C(=O)N[C@@H]([C@@H](C)O)C(=O)N1)C(C)C)C(=O)N[C@@H](CO)C(=O)N[C@@H](CCC(N)=O)C(=O)N[C@@H](CCC(=O)O)C(=O)N[C@@H](CC(C)C)C(=O)N[C@@H](Cc1c[nH]cn1)C(=O)N[C@@H](CCCCN)C(=O)N[C@@H](CC(C)C)C(=O)N[C@@H](CCC(N)=O)C(=O)N[C@H](C(=O)N[C@@H](Cc1ccc(O)cc1)C(=O)N1CCC[C@H]1C(=O)N[C@@H](CCCNC(=N)N)C(=O)N[C@H](C(=O)N[C@@H](CC(N)=O)C(=O)N[C@H](C(=O)NCC(=O)N[C@@H](CO)C(=O)NCC(=O)N[C@H](C(=O)N1CCC[C@H]1C(N)=O)[C@@H](C)O)[C@@H](C)O)[C@@H](C)O)[C@@H](C)O [Calcitonin]
- Max Response [12]: 102.54 and 108.07 and 103.06

Compound: COc1ccc2[nH]c(I)c(CCNC(C)=O)c2c1 [2-Iodomelatonin]
- EC80 [12]: 0.00277 µM
- Max Response [12]: 102.67

Compound: exendin-4 [Ex-4]
- 24 h body weight change ([15]; HFD-maintained rats): decreased 24 h body weight change relative to controls
- 24 h body weight change ([15]; chow-maintained rats): decreased 24 h body weight change relative to controls
- DBI protein expression in NTS and AP [16]: not different between treatments in HFD-maintained rats

Compound: SFRNGVGTGMKKTSFQRAKS [Neuropeptide S]
- EC50 [17]: 0.0236 µM

Compound: CSc1nc(N)c2ncn([C@@H]3O[C@H](COP(=O)(O)OP(=O)(O)O)[C@@H](O)[C@H]3O)c2n1 [2-methylthio-ADP]
- EC50 [18]: 0.00272 µM

Compound: CC[C@H](C)[C@H](NC(=O)[C@@H]1CCCN1C(=O)[C@@H](NC(=O)[C@@H](N)Cc1ccccc1)C(C)C)C(=O)N[C@@H](Cc1ccccc1)C(=O)N[C@H](C(=O)N[C@@H](Cc1ccc(O)cc1)C(=O)NCC(=O)N[C@@H](CCC(=O)O)C(=O)N[C@@H](CC(C)C)C(=O)N[C@@H](CCC(N)=O)C(=O)N[C@@H](CCCNC(=N)N)C(=O)N[C@@H](CCSC)C(=O)N[C@@H](CCC(N)=O)C(=O)N[C@@H](CCC(=O)O)C(=O)N[C@@H](CCCCN)C(=O)N[C@@H](CCC(=O)O)C(=O)N[C@@H](CCCNC(=N)N)C(=O)N[C@@H](CC(N)=O)C(=O)N[C@@H](CCCCN)C(=O)NCC(=O)N[C@@H](CCC(N)=O)C(=O)O)[C@@H](C)O [Motilin]
- EC50 [19]: 0.00159 µM

Compound: CCL2: control agonist
- EC50 [20]: 0.00263 µM

Compound: CCCCCCCCCCCCCCCC(=O)N[C@@H](CCC(=O)NCCCC[C@H](NC(=O)[C@H](C)NC(=O)[C@H](C)NC(=O)[C@H](CCC(N)=O)NC(=O)CNC(=O)[C@H](CCC(=O)O)NC(=O)[C@H](CC(C)C)NC(=O)[C@H](Cc1ccc(O)cc1)NC(=O)[C@H](CO)NC(=O)[C@H](CO)NC(=O)[C@@H](NC(=O)[C@H](CC(=O)O)NC(=O)[C@H](CO)NC(=O)[C@@H](NC(=O)[C@H](Cc1ccccc1)NC(=O)[C@@H](NC(=O)CNC(=O)[C@H](CCC(=O)O)NC(=O)[C@H](C)NC(=O)[C@@H](N)Cc1cnc[nH]1)[C@@H](C)O)[C@@H](C)O)C(C)C)C(=O)N[C@@H](CCC(=O)O)C(=O)N[C@@H](Cc1ccccc1)C(=O)N[C@H](C(=O)N[C@@H](C)C(=O)N[C@@H](Cc1c[nH]c2ccccc12)C(=O)N[C@@H](CC(C)C)C(=O)N[C@H](C(=O)N[C@@H](CCCNC(=N)N)C(=O)NCC(=O)N[C@@H](CCCNC(=N)N)C(=O)NCC(=O)O)C(C)C)[C@@H](C)CC)C(=O)O [Liraglutide, liraglutide]
- kaolin intake [21]: Kaolin intake was increased
